Measured values reported in patent US12064412B2 (SUN YAT-SEN UNIVERSITY, priority 2019, dated 2024).

Legend:
[1] = Phase solubility of naringenin with hydroxypropyl β-cyclodextrin in environments of different pH values; format: physicochemical; conditions: basic pH (8 and 9) versus ultrapure water, same hydroxypropyl β-cyclodextrin concentration (0-16% w/v), 25±1° C., 48 hours
Description: The process of the experimentation on the coating and solubilization of naringenin by hydroxypropyl β-cyclodextrin comprises:
preparing buffer-salt solutions of pH values of 4, 8 and 9 according to the method on a pharmacopoeia, adding different masses of the hydroxypropyl β-cyclodextrin into the buffer-salt solutions of the pH values of 4, 8 and 9 and ultrapure water, to prepare solutions of hydroxypropyl β-cyclodextrin of mass fractions (w/v) of 0, 2, 4, 8 and 16%, adding individually excessive naringenin, shaking in a constant-temperature shaking table at 25±1° C. at 200 rpm for 48 hours, taking out, standing, filtering by using a 0.45 μm microporous filter membranes, removing the primary filtrate, properly diluting the subsequent filtrate, and performing ultraviolet assay.
The detection method comprises, by using ultraviolet-visible spectrophotometry, measuring at the wavelength of 288 nm.
The preparing of a stock solution of the reference substance comprises: precisely weighing an appropriate amount of the naringenin reference substance that has been dried at 105° C. to constant weight, placing in a 10 mL volumetric flask, and dissolving by using methanol to volume, to obtain a stock solution of the reference substance of the concentration of 1 mg/mL. […]

[2] = oral dosage of 21 mg/kg, as reported by documents; cited from earlier work
[3] = oral administration, rat; cited from earlier work

**Q.** With O=C1C[C@@H](c2ccc(O)cc2)Oc2cc(O)cc(O)c21 [naringenin] as the molecule, how does the “total naringenin concentration in hydroxypropyl β-cyclodextrin solution at basic pH relative to ultrapure water” value [1] read?
**A.** The value was “approximately 3 times”.

**Q.** What about the AUC0-t [2] of the same molecule?
**A.** The AUC0-t was 15080.4 ng·min/g.

**Q.** What about the Tmax [2] of the same molecule?
**A.** The Tmax was 2 h.

**Q.** What about the “bioavailability, as calculated by the free naringenin” value [3] of the same molecule?
**A.** Its value is “approximately 4%”.
